According to patent US9346839B2:
Read-outs that look alike come from different tables or passages of the source.

Experiments:
ABAD = ABAD (Homo sapiens (Human), UniProt Q99714); test: Surface plasmon resonance (BIACORE 3000) binding experiment with ABAD
Method: Binding Experiment with ABAD. The interactions between compounds and ABAD were performed using the dual flow cell BIACORE 3000 instrument. Surface Plasmon Resonance (SPR) studies were performed on a BIACORE 3000 at 25° C. SPR binding experiments with ABAD were performed in phosphate-buffered saline (PBS, pH 7.4, 0.005% surfactant P20) as the running and the sample buffer. […] ABAD was dissolved in PBS buffer (pH 5.0) at a concentration of 10 μg/ml. The protein was immobilized directly and covalently on the hydrophilic carboxymethylated dextran matrix of the CM5 sensor chip (BIACORE) by using the standard primary amine coupling reaction on a CM5 sensor chip according to standard procedures. After the immobilization of the protein, excess activated carboxylic acid groups were quenched with ethanolamine (1 M, pH 8.5).
Special care was taken during injection of samples because of carryover effects. Special washing routines were used to clean the system before injection of new samples. In addition, predipping of needles was performed. The sample flow was 40 μl/minute in experiments performed for the determination of the kinetic and equilibrium constants. Regeneration of the surfaces between subsequent binding experiments was achieved by washing the surface extensively (>>1 hour) with buffer solution. Data analyses were carried out using BIA evaluation software, and the sensor grams were processed by automatic correction for nonspecific bulk refractive index effects. The kinetic analyses of the ligand binding to the protein were performed based on the 1:1 Langmuir binding fit model according to the standard procedures described in the software manual.
To perform kinetic analyses of the binding of phosphonate derivatives to ABAD, the BIACORE 3000 instrument (based on surface plasmon resonance [SPR] technology) was used. The 1:1 Langmuir binding fit model was used for determining the equilibrium dissociation constant (KD), and the association (kon) and dissociation (koff) rate constants by using Equations (1) and (2). dR/dt=kon×C×(Rmax−R)−koff×R (1) Where R represents the response unit, C is the concentration of the analyte, and KD=koff/kon (2) The results were evaluated by χ2 analysis.

[1] = test system: mitochondrial permeability transition pore (mPTP); test: Mitochondria swelling assay in response to Ca2+; set-up: species or system mice; conditions: for calcium-mediated mitochondrial swelling: with calcium
Method: Isolation of Brain Mitochondria. Brain from mice without white matter was used for mitochondrial isolation. Brain was homogenized in 9 ml of ice-cold EB buffer (1 mmol EDTA, 1-6 mg/ml BSA) using a Dounce homogenizer until no particles could be seen. Homogenates were centrifuged at 1300×g for 5 minutes. Supernatant from this fraction was carefully laid on top of a 15% PERCOLL solution (10 ml) and then centrifuged at 16000 RPM for 10 minutes. The pellet was carefully mixed with 9 ml of mitochondrial buffer (4.098% D-mannitol, 2.56% sucrose, 0.034% K2HPO4, pH 7.3-7.4) and 200 μl of 1% digitonin. After 5 minutes incubation on ice, the mixture was centrifuged at 8000 RPM for 10 minutes. Mitochondrial pellet was washed once with mitochondrial buffer. Subsequently, the mitochondrial pellet was resuspended in 100 μl of mitochondrial buffer and was used for further experiments.
Mitochondria Swelling Assay. A proper amount of mitochondria was resuspended into 1 ml swelling assay buffer (150 mM KCl, 2 mM KH2PO4, 10 mM HEPES, pH 7.4) and energized by 1 mM glutamate and 1 mM malate. Calcium at varying concentrations was added into the assay buffer to trigger mitochondrial swelling. Mitochondrial permeability transition was determined by studying the rate of change in absorbance at 540 nm via a spectrophotometer.
Mitochondrial Swelling in Response to Ca^2+. Given that the Compounds 4, 8 and 15 could inhibit ABAD activity, it was determined whether these same compounds could decrease mitochondrial permeability transition pore (mPTP) formation.

SK-N-SH cells = test: ATP levels in Aβ-treated cells; assay type: cell-based; conditions: for ATP levels in Aβ-treated cells: 5 μM Aβ1-42 plus 1 μM compound; for ATP levels, inhibitor alone: without Aβ
Method: Forty-eight hour later, ATP levels (μmol mg^−1 protein) were measured in cell lysates.
Adenosine-5′-Triphosphate (ATP) Levels. To determine the effect of ABAD inhibitors on Aβ-induced impairment in energy metabolism, ATP levels were measured. […] ATP levels were measured in the cell lysates. […] Therefore, ABAD inhibitors can block mitochondrial dysfunction mediated by Aβ.

Cells [2] = test: MTT reduction assay (cell survival and toxicity); assay type: cell-based; conditions: 1, 10, 50, 100 μM for 48 to 66 hours, compared to vehicle
Method: Cell Survival and Toxicity Assay. The MTT (3-(4,5-dimethylthiazol-2-yl)-2,5-diphenyltetrazolium bromide) assay, which is widely used to measure cell proliferation and to screen for anticancer drugs, was used for assessing cell viability. Cells were treated with a range of ABAD compounds at 1, 10, 50, and 100 μM for 48 hours and then subjected to MTT reduction assay following the manufacture's instruction.
(§1) Effect of ABAD Inhibitor on Cell Survival and Toxicity. The effect of ABAD inhibitors on cell viability and toxicity was assessed using MTT reduction assay and trypan blue exclusion, which are widely used to assess cell survival and toxicity and to screen for drugs toxicity. Cells were treated with a range of concentrations of ABAD compound (4 and 8) at 1, 10, 50, 100 μM for 48 to 66 hours.

Cells [3] = test: Trypan blue dye exclusion (cell viability and toxicity); assay type: cell-based; conditions: 1, 10, 50, 100 μM for 48 to 66 hours, compared to vehicle
Method: The trypan blue dye exclusion is commonly used for measuring cell viability and toxicity. 48-66 hours after treatment of ABAD compounds, the trypan blue exclusion experiments were performed. In brief, cells plated in 96-well plates were washed with the balanced salt solution (Hanks-Balanced Salts/HESS) once, then replaced with HBSS including trypan blue solution to the final concentration of 0.2% (Sigma-Aldrich, St. Louis, Mo.), and mixed thoroughly. After standing at room temperature for 5 minutes, the cells were washed with HBSS again and then maintained in the well with HBSS. Both the stained and unstained cells in each well were counted under a microscope (Nikon E400). The calculated percentage of unstained cells represented the percentage of viable cells. Cell viability(%)=total viable cells (unstained)/total cells (stained and unstained)×100.
as §1

mAPP mice = test: Morris water maze learning and memory in AD transgenic mice; assay type: in vivo; conditions: for learning memory: i.p. injection; for swim strategy used to locate the hidden platform: representative swim paths, mAPP mice; for latency to find the hidden platform: treated AD mice compared to untreated AD mice; for number of crossings at the target location / percent of time spent in the target quadrant: treated mAPP mice vs untreated mAPP mice, probe trial
Method: Wild-type mice (Non Tg) were also administered Compound 8 (n=5) and vehicle (n=5). Each mouse was given four 60-second trials per day for six consecutive days to find the hidden platform in a Morris water maze.
Wild-type mice were also administered Compound 8 […]. Each mouse was given four 60-second trials per day for seven consecutive days to find the hidden platform in a Morris water maze.
Each mouse was given four 60-second trials per day for six consecutive days to find the hidden platform in a Morris water maze.
In addition, the effect of Compounds 4 and 8 on learning and memory of Alzheimer's Disease (AD) transgenic mice was evaluated. Six month and 9-14 month-old transgenic mice overexpressing a mutated form of the human amyloid precursor protein (mAPP mice) and their wild-type (non Tg) littermates were used in this study. […] Moreover, performance in a spatial MWM trial was evaluated using crossings over the platform area (an index of memory precision; Morris (1984) J. Neurosci. Methods 11:47-60), percent of time spent in target quadrant (an index of memory retrieval; Morris (1984) J. Neurosci. Methods 11:47-60), and swim paths.

[4] = Solubility in solvents during method development; assay type: physicochemical
Method: Method Development. During the development of a detection method for analytes 4, 8 and 15, multiple solvents were tested to find the optimal mobile phase. […] Acetonitrile was selected for better peak shape and compatibility with serum/brain protein precipitation. Compounds 8 and 15 were chosen as IS, because of their structural similarity. Selected reaction monitoring (SRM) acquisitions were used for sensitivity and extended dynamic range. The cone voltage and collision energy were optimized for 4, 8 and 15 and the IS by continuously infusing a mixture of the two. The optimum cone voltage was 30V.

[5] = Stability of standards under temperature and storage conditions; assay type: physicochemical; conditions: standards in methanol; 25° C. short-term, −20° C. for twenty days
Method: Stability. The stability of compounds 4, 8, and 15 was evaluated in ACSF, plasma, and brain matrices under various temperature and storage conditions. Stability at room temperature was studied by analyzing samples at 25° C. for 2 and 4 hours and stability at −80° C. was checked for one month. Samples were analyzed after three (−80° C. to 25° C.) freeze-thaw cycles. Stability studies were performed at three concentrations.
Stability The stability of ABAD compounds were determined under different temperature and storage conditions. 4, 8 and 15 standards were dissolved in methanol and were subjected short-term exposure at 25° C. for and 4 hours long-term storage conditions were assessed at −20° C. for twenty days.

[6] = Table 7, 1:1 Langmuir binding fit, read-out: SPR KD

Sequence of ABAD (Q99714 whole entry): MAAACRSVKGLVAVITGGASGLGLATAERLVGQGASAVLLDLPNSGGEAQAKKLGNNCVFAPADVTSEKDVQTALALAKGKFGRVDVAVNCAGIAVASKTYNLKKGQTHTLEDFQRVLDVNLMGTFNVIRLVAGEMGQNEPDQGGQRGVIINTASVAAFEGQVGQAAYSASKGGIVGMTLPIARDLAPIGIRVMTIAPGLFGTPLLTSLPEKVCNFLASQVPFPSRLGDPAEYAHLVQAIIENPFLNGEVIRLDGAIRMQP

SMILES | Kd (ABAD; [6]) | calcium-mediated mitochondrial swelling [1] | mitochondrial swelling without calcium [1] | ATP levels in Aβ-treated cells (SK-N-SH cells) | ATP levels, inhibitor alone (SK-N-SH cells) | MTT reduction (Cells [2]) | increased percentage of trypan blue-positive cells (Cells [3]) | learning memory (mAPP mice; 6-months old mAPP mice) | learning memory (mAPP mice; 9-14-months old mAPP mice) | swim strategy used to locate the hidden platform (mAPP mice) | latency to find the hidden platform (mAPP mice) | number of crossings at the target location (mAPP mice) | percent of time spent in the target quadrant (mAPP mice) | solubility in methanol or acetonitrile [4] | solubility in water [4] | stability, variability across all samples [5] | Kd (ABAD; Table 6, read-out: KD) | learning memory (mAPP mice; 9-months old mAPP mice)
COc1ccc2nc(N[C@@H](c3ccc(O)cc3)P(=O)(OC)OC)sc2c1 (racemic) [Compound 8, Dimethyl ((4-hydroxyphenyl)((6-methoxybenzo[d]thiazol-2-yl)amino)methyl)phosphonate] | 0.291 µM | antagonized calcium-mediated mitochondrial swelling | did not affect mitochondrial swelling without calcium | rescued ATP levels | comparable to cells treated with vehicle alone without Aβ | did not exhibit decreased MTT reduction | did not exhibit | improves learning memory | improves learning memory | improvement in the swim strategy | significantly shorter latency | significantly more | significantly more | dissolved readily in methanol or acetonitrile | dissolved partially in water | less than 10 % (RSD) |  | 
COC(=O)c1cc([C@H](Nc2nc3ccc(OC)cc3s2)P(=O)(OC)OC)ccc1O [Compound 4, Methyl 5-((dimethoxyphosphoryl)((6-methoxybenzo[d]thiazol-2-yl)amino)methyl)-2-hydroxybenzoate] | 0.496 µM | antagonized calcium-mediated mitochondrial swelling | did not affect mitochondrial swelling without calcium | rescued ATP levels | comparable to cells treated with vehicle alone without Aβ | did not exhibit decreased MTT reduction | did not exhibit |  |  | improvement in the swim strategy | significantly shorter latency | significantly more | significantly more | dissolved readily in methanol or acetonitrile | dissolved partially in water | less than 10 % (RSD) | 0.496 µM | improves learning memory
COc1ccc2nc(N[C@@H](c3ccc(F)cc3)P(=O)(OC)OC)sc2c1 [Compound 15, Dimethyl ((4-fluorophenyl)((6-methoxybenzo[d]thiazol-2-yl)amino)methyl)phosphonate] | 0.264 µM | antagonized calcium-mediated mitochondrial swelling | did not affect mitochondrial swelling without calcium | rescued ATP levels | comparable to cells treated with vehicle alone without Aβ |  |  |  |  |  |  |  |  | dissolved readily in methanol or acetonitrile | dissolved partially in water | less than 10 % (RSD) |  | 
